In patent publication US12616759B2, “Uses of labeled HSP90 inhibitors” (Sloan-Kettering Institute for Cancer Research, priority 2011, dated 2026):
Like-named read-outs stand apart in the source and are kept apart here.

Assays:
tumor HSP90 = conditions: for available HSP90 tumor sites occupied: 24 h
MDA-MB-468 tumors [1] = experiment: efficacy in MDA-MB-468 xenografts; format: in vivo, mice; conditions: for anti-tumor effect: 75 mg/kg, 5 weeks
Experimental: Efficacy Studies. Mice (n=5) bearing MDA-MB-468 tumors reaching a volume of 100-150 mm^3 were treated i.p. (i.p.) using different doses and schedules, as indicated. Tumor volume was determined by measurement with Vernier calipers, and tumor volume was calculated as the product of its length×width^2×0.4. Tumor volume was expressed on indicated days as the median tumor volume±SD indicated for groups of mice. Percent (%) tumor growth inhibition values were measured on the final day of study for drug-treated compared with vehicle treated mice and are calculated as 100×{1−[(TreatedFinal day−TreatedDay 1)/(ControlFinal day−ControlDay 1)]}. Tumor regression values were determined by calculating the ratio of median tumor volumes at the time when treatment was initiated to median tumor volume on the final day of study for a given treatment group. Percent (%) tumor regression is 100×[1−(TreatedFinal day/TreatedDay 1)].

MDA-MB-468 cells = experiment: MDA-MB-468 and other breast cancer cells in vitro: growth inhibition, client depletion, apoptosis
MDA-MB-468 tumors [2] = experiment: PU-H71 tumor concentration predicted from [^124I]-PU-H71 PET (equation 1a, simulations)
[3] = as above; conditions: mouse, tumor (MDA-MB-468), 75 mg/kg
MO-91 tumors = experiment: pharmacodynamic study in MO-91 xenografted tumors; format: in vivo, mice; conditions: post-administration of one dose
Experimental: Pharmacodynamic Study: Four- to 6-week-old nu/nu athymic female mice were obtained from Taconic Farms. Experiments were carried out under an Institutional Animal Care and Use Committee-approved protocol, and institutional guidelines for the proper and humane use of animals in research were followed. HEL and MO-91 cells were subcutaneously implanted in the right flank of mice using a 20-gauge needle and allowed to grow. Before administration, a solution of PU-H71-HCl was formulated in sterile PBS. For this assay, tumors were allowed to reach 6-8 mm in diameter before treatment. […] Tumors were homogenized and proteins analyzed by western blot as described above.

[4] = PU-H71 tumor concentration by LC-MS/MS; format: in vivo, mice; conditions: mouse, tumor (MDA-MB-468), read-out: actual tumor concentration by LC-MS/MS; for concentration at 24 h: 24 h after last dose
Description: LC-MS/MS analyses. […] Samples were reconstituted in mobile phase.

caspase-3,7 = experiment: caspase 3,7 activation assay; format: cell-based
Experimental: Caspase 3,7 Activation Assay: Cells were plated and treated as described in the growth inhibition assay section. Following a 24 h or 48 h exposure of cells to Hsp90 inhibitors, 100 μL buffer containing 10 mM Hepes, pH 7.5, 2 mM EDTA, 0.1% CHAPS, 0.1 mg/mL PMSF, Complete Protease Inhibitor mix (#1697498; Roche), and the caspase substrate Z-DEVD-R110 (#R22120; Molecular Probes) at 25 μM was added to each well. Plates were placed on an orbital shaker to promote cell lysis and reaction. The fluorescence signal of each well was measured in an Analyst GT (Molecular Dev ices) microplate reader (excitation 485 nm; emission at 530 nm). The percentage increase in caspase-3,7 activity was calculated by comparison of the fluorescence reading obtained from treated versus control cells. All experimental data were analyzed using SOFTmax Pro 4.3.1 and plotted using Prism 4.0 (Graphpad Software Inc., San Diego, CA).

MDA-MB-468 tumors [5] = conditions: 75 mg/kg, reference 100; cited from earlier work
patient tumors = experiment: [^124I]-PU-H71 PET/CT in cancer patients, tumor exposure to PU-H71; conditions: for tumor AUC: two weeks; for tumor AUC0-48 h: paratracheal node
[6] = HER2+ breast cancer patient, 10 mg/m^2 5 times a week
[7] = HER2+ breast cancer patient, 10 mg/m^2 once a week
[8] = HER2+ breast cancer patient, 10 mg/m^2 three times a week
[9] = pancreatic cancer patient, first tumor, 80 mg/m2 2×week
[10] = pancreatic cancer patient, left lung, 20 mg/m2 twice-week
[11] = pancreatic cancer patient, right hilum LN, 20 mg/m2 twice-week
[12] = pancreatic cancer patient, second tumor, 80 mg/m2 2×week

## CC(C)NCCCn1c(Sc2cc3c(cc2I)OCO3)nc2c(N)ncnc21 [PU-H71]
Tumor HSP90; 5 mg/kg
  available HSP90 tumor sites occupied: 12.1%
Tumor HSP90; 25 mg/kg
  available HSP90 tumor sites occupied: 57.7%
Tumor HSP90; 50 mg/kg
  available HSP90 tumor sites occupied: 88.7%
Tumor HSP90; 75 mg/kg
  available HSP90 tumor sites occupied: 92.7%
Tumor HSP90; 24 h post-injection, one gram of tumor
  BMAX, maximum HSP90 per gram of tumor: 160.7×10^−3 nmols
Tumor HSP90; one gram of tumor
  BMAX as HSP90 molecules per gram of tumor: 960×10^11 HSP90 molecules
MDA-MB-468 tumors [1]; 5 mg/kg arm
  tumor volume at end of treatment: 139±66 mm^3
MDA-MB-468 tumors [1]; 5 mg/kg i.p. 3×week, 7 weeks
  tumor growth inhibition (TGI): 63%
MDA-MB-468 tumors [1]; 25 mg/kg i.p. 3×week, 7 weeks
  tumor growth inhibition (TGI): 82%
MDA-MB-468 tumors [1]; 50 mg/kg i.p. 3×week, 7 weeks
  tumor growth inhibition (TGI): 99%
MDA-MB-468 tumors [1]; 75 mg/kg i.p. 3×week, 7 weeks
  regression: 100%
MDA-MB-468 tumors [1]; 1×week
  anti-tumor effect: significant tumor growth inhibition
MDA-MB-468 tumors [1]; 2×week
  anti-tumor effect: tumor regressions
MDA-MB-468 tumors [1]; averaged over the time of treatment
  average occupancy of tumor HSP90 sites needed for tumor regression and cure: over 80%
MDA-MB-468 tumors [1]; over the time of treatment
  average occupied sites that may still lead to partial response: ≥ 15%
  average tumor concentration needed for tumor regression and cure: 5 µM
  average tumor concentration that may still lead to partial response: ≥ 0.5 µM
MDA-MB-468 cells; MDA-MB-468, 24 h
  concentrations resulting in HSP90 inhibition (depletion of Raf-1, Akt): above 0.1 μM
MDA-MB-468 cells; MDA-MB-468, 48 h
  concentration required for about 50% of cells undergoing apoptosis: 0.5 µM
  concentration required for about 100% of cells undergoing apoptosis: about 5 μM
MDA-MB-468 cells; MDA-MB-468, >2 μM, 48 h
  cells undergoing apoptosis: > 70%
MDA-MB-468 tumors [2]; 1 mg/kg, 48 h and beyond
  tumor concentration of PU-H71: less than 0.05 μM
MDA-MB-468 tumors [2]; 5 mg/kg 3×week, 24 h after last dose
  simulated tumor concentration at the time of sacrifice: 0.43 µM
MDA-MB-468 tumors [2]; 75 mg/kg, 1×week
  [PU-H71tumor]avg: 2.88 µM
MDA-MB-468 tumors [2]; 75 mg/kg, 2×week
  [PU-H71tumor]avg: 5.41 µM
MDA-MB-468 tumors [2]; 75 mg/kg, 3×week
  [PU-H71tumor]avg: 7.45 µM
MDA-MB-468 tumors [2]; 75 mg/kg, 24 h
  tumor concentration from PET or biodistribution studies: 5.51 ± 1.78 µM
[3]
  concentration at 24 h: 5510 nM
  concentration at 72 h: 2180 ± 1780 nM
  concentration at 96 h: 2180 nM
MO-91 tumors
  duration of apoptosis after one dose: 96 h
[4]; 5 mg/kg 3×week
  concentration at 24 h: 520 ± 130 nM
[4]; 75 mg/kg 1×week
  concentration at 24 h: 5530 ± 260 nM
[4]; 75 mg/kg 1×week, 96 h after last dose
  concentration at 96 h: 3090 ± 1400 nM
caspase-3,7; Kasumi-1 and SKNO-1, 24 h
  increase in caspase-3,7 activation: two-fold
caspase-3,7; MOLM-13 and MO-91, 24 h
  increase in caspase-3,7 activation: ten-fold
MDA-MB-468 tumors [5]
  anti-tumor effect: tumor regression and cures
Patient tumors; [6]
  average tumor concentration: 0.81 µM
  tumor AUC0-336 h: 189.8 μM-h
Patient tumors; [7]
  average tumor concentration: 0.41 µM
  tumor AUC0-336 h: 54 μM-h
Patient tumors; [8]
  average tumor concentration: 0.71 µM
  tumor AUC0-336 h: 140.8 μM-h
Patient tumors; HER2+ breast cancer patient, 10 mg/m^2 twice a week
  average tumor concentration: 0.59 µM
Patient tumors; HER2+ breast cancer patient, 10 mg/m^2 twice a week for two weeks
  tumor AUC0-336 h: 103 μM-h
Patient tumors; [9]
  average tumor concentration: > 2.8 µM
  tumor exposure: above 760 uM-h
Patient tumors; [10]
  average tumor concentration: 0.71 µM
  tumor AUC: 190 μM-h
Patient tumors; [11]
  average tumor concentration: 1.57 µM
  tumor AUC: 499 μM-h
Patient tumors; [12]
  average tumor concentration: > 6.3 µM
  tumor exposure: > 1998 uM-h
Patient tumors; 10 mg/m^2, estimated from [^124I]-PU-H71 PET
  tumor AUC0-48 h: 24.9 μM-h
Patient tumors; co-injection with 10 mg/m2 PU-H71
  tumor AUC0-48 h: 22.3 μM-h
